{
  "source": "patent US7875452B2",
  "about": "“Non-desensitizing mutant of the transient receptor potential TRPM5 ion channel” (Redpoint Bio Corporation, priority 2007, dated 2011)",
  "format_in_all_cases": "cell-based",
  "key": {"[1]": {"test_system": "cells transfected with PSV3 Neo", "test": "FMP dye membrane potential assay in sham cells transfected with PSV3 Neo empty vector", "conditions": "10 μM ATP, sham control, FIG. 3", "experimental": "(§1) 100 μl of the Blue or Red FMP dye (Molecular Devices) was added to each well of plates seeded with HEK cells transiently transfected with pDEST-26™-(His)6-hTRPM 5. The plate was then incubated in a 37° C. /5% CO2 incubator for 1 hour. The plate was read in a FLEXStation™ microplate reader (Molecular Devices) with an excitation of 530 nm and an emission of 565 nm. The fluorescence was monitored for 3 minutes upon exposure of the cells to a calcium activating agent (carbachol, thrombin peptide or ATP).\nCells transfected with either wildtype hTRPM5 DNA, non-desensitizing (His)6-hTRPM5 DNA or PSV3 Neo were loaded with FMP dye and then treated with 10 μM ATP and monitored for an increase in cellular fluorescence in the FLEXstation™."}, "wildtype hTRPM5": {"molecular_target": "T1, wildtype hTRPM5 (Homo sapiens, UniProt Q9NZQ8)", "T1 construct": "the full length hTRPM5 was amplified by PCR using GC Melt; expressed in transfected cells; host or cells: HEK 293 cells", "T1 sequence (Q9NZQ8 1-1165)": "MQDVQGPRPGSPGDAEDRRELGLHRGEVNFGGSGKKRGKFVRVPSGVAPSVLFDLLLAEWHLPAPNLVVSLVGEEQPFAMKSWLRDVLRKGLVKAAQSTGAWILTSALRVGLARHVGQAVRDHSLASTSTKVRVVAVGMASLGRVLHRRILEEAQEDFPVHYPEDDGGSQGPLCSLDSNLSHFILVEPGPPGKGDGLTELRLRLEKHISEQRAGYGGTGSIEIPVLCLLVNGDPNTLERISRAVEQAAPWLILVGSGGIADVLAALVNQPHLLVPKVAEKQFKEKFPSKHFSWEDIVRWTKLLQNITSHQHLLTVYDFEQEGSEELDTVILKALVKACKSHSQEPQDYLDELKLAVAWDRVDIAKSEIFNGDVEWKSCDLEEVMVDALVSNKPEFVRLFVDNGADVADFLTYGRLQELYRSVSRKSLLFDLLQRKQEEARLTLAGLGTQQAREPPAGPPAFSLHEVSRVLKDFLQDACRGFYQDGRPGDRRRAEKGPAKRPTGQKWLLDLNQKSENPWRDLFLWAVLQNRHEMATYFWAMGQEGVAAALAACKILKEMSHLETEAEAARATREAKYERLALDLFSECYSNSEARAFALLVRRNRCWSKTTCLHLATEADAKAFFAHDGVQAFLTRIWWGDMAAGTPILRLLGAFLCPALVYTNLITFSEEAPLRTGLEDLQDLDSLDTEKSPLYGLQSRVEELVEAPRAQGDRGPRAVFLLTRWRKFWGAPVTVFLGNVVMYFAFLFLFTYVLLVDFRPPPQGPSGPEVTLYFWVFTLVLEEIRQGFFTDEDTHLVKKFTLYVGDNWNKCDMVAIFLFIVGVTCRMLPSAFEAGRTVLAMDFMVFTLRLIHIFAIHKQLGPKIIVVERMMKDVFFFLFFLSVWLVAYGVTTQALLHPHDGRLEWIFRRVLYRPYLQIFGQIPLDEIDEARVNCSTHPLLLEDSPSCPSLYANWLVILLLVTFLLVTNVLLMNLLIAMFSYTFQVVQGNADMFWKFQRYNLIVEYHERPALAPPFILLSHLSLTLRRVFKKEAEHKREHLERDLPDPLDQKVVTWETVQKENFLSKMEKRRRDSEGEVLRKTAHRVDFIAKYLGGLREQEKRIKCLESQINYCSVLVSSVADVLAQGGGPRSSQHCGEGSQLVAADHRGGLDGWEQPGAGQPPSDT", "test": "FMP dye membrane potential assay in cells transfected with wildtype hTRPM5", "conditions": "10 μM ATP, cells transfected with wildtype hTRPM5, FIG. 3", "experimental": "(§2) 5.0×10^6 HEK 293 cells (ATCC) were plated in a 10 cm culture dish at 37° C. in a CO2 incubator in Dulbecco's Modified Eagle's Medium (DMEM) supplemented with 10% Fetal Bovine Serum (FBS) and Penicillin-Streptomycin Solution. The following day, medium in the culture dish was exchanged with 15 mL of DMEM/10% FBS over a period of 3 hours. Prior to cell transfection, 24 μg of pcDNA-DEST-26-(His)6-hTRPM5 was incubated in a 5 mL polypropylene tube for 5 minutes at room temperature in 1.5 mL of OPTI-MEM media (Invitrogen). In a separate 5 mL polypropylene tube, 42 μL of Lipofectamine™ 2000 (Invitrogen) was incubated for 5 minutes at room temperature in 1.5 mL of OPTI-MEM media. After the 5 minute incubation period, the pcDNA-DEST-26-(His)6-hTRPM5 and Lipofectamine™ 2000 solutions were mixed together and incubated for an additional 20 minutes at room temperature. […] Plates were then assayed on a FLIPR Tetra reader as described.\nas §1, with “The plate was then incubated in a 37° C. /5% CO2 incubator for 1 hour.” left out, “ATP). […]” for “ATP).”"}, "[2]": {"molecular_target": "T2, non-desensitizing (His)6-hTRPM5 ion channel (Homo sapiens, UniProt Q9NZQ8)", "T2 construct": "expressed in transfected cells; host or cells: HEK 293 cells (ATCC), transient transfection with pcDNA-DEST-26-(His)6-hTRPM5", "T2 sequence (Q9NZQ8 with tags, fused parts or gaps)": "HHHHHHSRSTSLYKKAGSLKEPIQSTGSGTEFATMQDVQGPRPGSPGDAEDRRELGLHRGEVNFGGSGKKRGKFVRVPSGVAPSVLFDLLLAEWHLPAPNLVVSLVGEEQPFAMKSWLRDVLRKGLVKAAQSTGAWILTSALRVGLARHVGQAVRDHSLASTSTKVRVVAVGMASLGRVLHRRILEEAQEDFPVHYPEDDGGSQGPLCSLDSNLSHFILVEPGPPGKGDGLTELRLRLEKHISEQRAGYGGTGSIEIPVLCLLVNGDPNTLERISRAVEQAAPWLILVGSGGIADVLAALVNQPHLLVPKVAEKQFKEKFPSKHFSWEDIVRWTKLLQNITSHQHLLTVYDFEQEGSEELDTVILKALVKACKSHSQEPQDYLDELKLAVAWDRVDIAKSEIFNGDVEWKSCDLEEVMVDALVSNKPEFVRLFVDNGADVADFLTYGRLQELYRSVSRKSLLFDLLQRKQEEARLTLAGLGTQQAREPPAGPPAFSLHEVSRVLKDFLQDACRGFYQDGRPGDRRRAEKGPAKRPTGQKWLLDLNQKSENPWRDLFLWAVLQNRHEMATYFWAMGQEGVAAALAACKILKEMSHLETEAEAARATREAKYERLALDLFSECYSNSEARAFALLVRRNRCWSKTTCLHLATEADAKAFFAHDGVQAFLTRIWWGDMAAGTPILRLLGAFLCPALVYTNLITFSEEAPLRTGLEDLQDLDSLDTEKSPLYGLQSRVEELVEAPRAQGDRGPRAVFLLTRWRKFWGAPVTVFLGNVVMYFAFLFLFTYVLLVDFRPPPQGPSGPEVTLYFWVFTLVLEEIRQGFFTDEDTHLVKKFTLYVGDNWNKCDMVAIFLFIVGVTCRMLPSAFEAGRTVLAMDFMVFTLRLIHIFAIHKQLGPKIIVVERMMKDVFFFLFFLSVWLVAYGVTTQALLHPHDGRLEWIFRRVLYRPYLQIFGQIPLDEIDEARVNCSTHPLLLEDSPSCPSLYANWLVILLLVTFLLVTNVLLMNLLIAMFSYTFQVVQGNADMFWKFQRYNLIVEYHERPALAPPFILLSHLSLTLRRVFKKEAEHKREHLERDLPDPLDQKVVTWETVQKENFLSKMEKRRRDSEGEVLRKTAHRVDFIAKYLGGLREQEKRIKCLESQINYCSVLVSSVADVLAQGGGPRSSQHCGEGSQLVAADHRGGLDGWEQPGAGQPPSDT", "test": "FMP dye membrane potential assay in cells transfected with non-desensitizing (His)6-hTRPM5", "conditions": "10 μM ATP, HEK 293 cells transiently transfected with (His)6-hTRPM5, FIG. 3", "experimental": "as §2, with “media.” for “media. After the 5 minute incubation period, the pcDNA-DEST-26-(His)6-hTRPM5 and Lipofectamine™ 2000 solutions were mixed together and incubated for an additional 20 minutes at room temperature.”\nas §1, with “The plate was then incubated in a 37° C. /5% CO2 incubator for 1 hour.” left out, “ATP). […]” for “ATP).”\nCells transfected with non-desensitizing (His)6-hTRPM5 DNA were loaded with FMP dye and then treated with 10 μM ATP and monitored for an increase in cellular fluorescence in the FLEXstation™. […]"}},
  "data": [
    {"smiles": "Nc1ncnc2c1ncn2[C@@H]1O[C@H](COP(=O)(O)OP(=O)(O)OP(=O)(O)O)[C@@H](O)[C@H]1O", "note": "[ATP, adenosine triphosphate]", "values": [
      {"measurement": "membrane potential response (cellular fluorescence) to application", "setting": "[1]", "result": "no significant response"},
      {"measurement": "duration of increase in fluorescence (initial activation) before rapid inactivation", "setting": "wildtype hTRPM5", "result": "about 30 seconds"},
      {"measurement": "time for which fluorescence is observed at significant levels after activation", "setting": "[2]", "result": "more than 3 minutes"}
    ]}
  ]
}
